In patent US5939409A, “Processes for the production of anti-inflammatory steroids” (priority 1991, dated 1999):

Tests used:
[1] = tested on: Sephadex induced lung edema (left lung lobe); assay: Local antiinflammatory activity on airway mucosa (left lung lobe), Sephadex induced lung edema, local instillation; type: in vivo, Sprague Dawley rat; conditions: rat; for ED50 (left lung administration), left lung lobe: required glucocorticosteroid dose to reduce the edema by 50% / ED50: left lung instillation 2 h before Sephadex (5 mg/kg), left lung lobe weighed 20 h later, relative to Sephadex control group; for ED50: read-out: ED50 (left lung administration), left lung lobe: required glucocorticosteroid dose to reduce the edema by 50%
Experimental: A. Test model for desired local antiinflammatory activity on airway mucosa (left lung lobe)
Sprague Dawley rats (250 g) were slightly anaesthetized with Ephrane and the glucocorticosteroid test preparation (suspended in saline) in a volume of 0.5 ml/kg was instilled into just the left lung lobe. Two hours later a suspension of Sephadex (5 mg/kg in a volume of 1 ml/kg) was instilled under slight anaesthesia in the trachea well above the bifurcation so that the suspension reached both the left and right lung lobes. Twenty hours later the rats were killed and the left lung lobes dissected out and weighed. Control groups got saline instead of glucocorticosteroid preparation and saline instead of Sephadex suspension to determine the weight of non-drug treated Sephadex edema and the normal lung weight.

[2] = tested on: Sephadex induced lung edema (lung); assay: Unwanted systemic effect by orally absorbed glucocorticosteroid, Sephadex induced lung edema; type: in vivo, Sprague Dawley rat; conditions: for ED50: po, read-out: ED50 (p.o. administration), lung: required glucocorticosteroid dose to reduce the edema by 50%; for ED50 / ED50 (p.o. administration), lung: required glucocorticosteroid dose to reduce the edema by 50%: rat, p.o. 2 h before Sephadex (5 mg/kg), lung lobes weighed 20 h later, relative to Sephadex control group; for dose required to inhibit lung edema (ED50) by oral administration relative to dose needed by local application to the lung (lung selectivity): ratio oral ED50 / local lung ED50, rat
Experimental: B. Test model for unwanted systemic effect by orally absorbed glucocorticosteroid
Sprague Dawley rats (250 g) were slightly anaesthetized with Ephrane and after that the GCS test preparation in a volume of 0,5 ml/kg was given orally. Two hours later a suspension of Sephadex (5 mg/kg in a volume of 1 ml/kg) was instilled in the trachea well above the bifurcation so that the suspension reached both the left and the right lung lobes. Twenty hours later, the rats were killed and the lung lobes were weighed. Control groups got saline instead of glucocorticosteroid preparation and saline instead of Sephadex suspension to determine the weight of non-drug treated Sephadex edema and the normal weight.

Compound | ED50 (left lung administration), left lung lobe: required glucocorticosteroid dose to reduce the edema by 50% [1] [nmol/kg] | ED50 [1] [µmol/kg] | ED50 [2] [µmol/kg] | ED50 (p.o. administration), lung: required glucocorticosteroid dose to reduce the edema by 50% [2] [nmol/kg] | dose required to inhibit lung edema (ED50) by oral administration relative to dose needed by local application to the lung (lung selectivity) [2] [times] | local antiinflammatory activity compared with budesonide ([1]; in words, left lung administration) | lung selectivity compared to the selected prior art compound (budesonide) ([2]; in words, oral vs local lung ED50, rat)
CCCC1O[C@@H]2C[C@H]3[C@@H]4CCC5=CC(=O)C=C[C@]5(C)[C@H]4[C@@H](O)C[C@]3(C)[C@]2(C(=O)CO)O1 (stereo partly drawn) [Budesonide, reference compound] | 300 | 0.3 | 4 | 4000 | 13 |  | 
CCC[C@@H]1O[C@@H]2C[C@H]3[C@@H]4C[C@H](F)C5=CC(=O)CC[C@]5(C)[C@@]4(F)[C@@H](O)C[C@]3(C)[C@]2(C(=O)CO)O1 [Example 6, (22R)-16α,17α-butylidenedioxy-6α,9α-difluoro-11β,21-dihydroxypregn-4-ene-3,20-dione] | 10 | 0.01 | 0.32 | 320 | 32 | much higher local antiinflammatory activity than budesonide | higher lung selectivity
